In patent US20250215029A1 (Recludix Pharma, Inc., priority 2022, published 2025):
Like-named read-outs stand apart in the source and are kept apart here.

Tests used:
[1] = biological target: T1, Recombinant STAT3 protein (STAT3 (G127-I722)) (Homo sapiens, UniProt P40763); test: STAT3 Fluorescence Polarization (FP) Assay; format: binding; conditions: probe 5-FAM-GpYLPQTV-NH2 2 nM, 45-minute incubation
T1 construct: Recombinant STAT3 protein (STAT3 (G127-I722))
Protocol: STAT3 Fluorescence Polarization (FP) Assay
An FP assay was developed to determine IC50 values for test substances. Recombinant STAT3 protein (STAT3 (G127-I722)) at 25 nM was combined with a fluorescently labeled, phosphotyrosine peptide probe (5-FAM-GpYLPQTV-NH2) at 2 nM in FP buffer (10 mM HEPES pH 7.4, 50 mM NaCl, 1 mM EDTA, 0.05% Tween 20.2 mM DTT). 50 μL of STAT3-probe mixture was added to serial diluted compounds in black, 96-well plates (Greiner BioOne 655076) to a final concentration of 1% DMSO. Reaction components were mixed, and FP was measured after 45-minute incubation at room temperature using a Tecan Spark multimode plate reader. FP signal (mP) was plotted against the log concentration of the test substances and IC50 values were calculated by nonlinear regression analysis using GraphPad Prism software. For STAT3 FP assay, A=≤100 nM; B=>100-1000 nM; C=>1-10 μM; and D=>10 μM.

[2] = biological target: T2, Recombinant STAT6 protein (STAT6 (W123-T658)) (Homo sapiens, UniProt P42226); test: STAT6 Fluorescence Polarization (FP) Assay; format: binding; conditions: 45-minute incubation
T2 construct: Recombinant STAT6 protein (STAT6 (W123-T658))
T2 sequence (P42226 123-658): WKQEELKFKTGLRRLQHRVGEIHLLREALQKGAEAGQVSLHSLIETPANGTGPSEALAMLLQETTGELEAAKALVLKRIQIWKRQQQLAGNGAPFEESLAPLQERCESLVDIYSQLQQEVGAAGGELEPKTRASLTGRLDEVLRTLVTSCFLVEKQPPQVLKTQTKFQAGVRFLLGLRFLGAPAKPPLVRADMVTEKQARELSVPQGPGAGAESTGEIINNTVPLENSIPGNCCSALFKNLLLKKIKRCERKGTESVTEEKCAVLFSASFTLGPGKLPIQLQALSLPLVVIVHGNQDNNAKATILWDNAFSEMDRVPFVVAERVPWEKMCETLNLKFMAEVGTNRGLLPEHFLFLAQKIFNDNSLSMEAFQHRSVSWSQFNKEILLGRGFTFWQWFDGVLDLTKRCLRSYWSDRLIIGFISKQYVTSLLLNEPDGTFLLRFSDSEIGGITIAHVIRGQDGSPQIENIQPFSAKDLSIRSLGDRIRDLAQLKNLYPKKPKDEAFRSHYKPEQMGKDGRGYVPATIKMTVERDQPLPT
Protocol: STAT6 Fluorescence Polarization (FP) Assay
An FP assay was developed to determine IC50 values for test substances. Recombinant STAT6 protein (STAT6 (W123-T658)) at 250 nM was combined with a fluorescently labeled, phosphotyrosine peptide probe (5-FAM-Ap[…]-NH2) at 2 nM in FP buffer (10 mM HEPES pH 7.4, 50 mM NaCl, 1 mM EDTA, 0.05% Tween 20, 2 mM DTT). 50 μL of STAT6-probe mixture was added to serial diluted compounds in black, 96-well plates (Greiner BioOne 655076) to a final concentration of 1% DMSO. Reaction components were mixed, and FP was measured after 45-minute incubation at room temperature using a Tecan Spark multimode plate reader. FP signal (mP) was plotted against the log concentration of the test substances and IC50 values were calculated by nonlinear regression analysis using GraphPad Prism software. For STAT6 FP assay, A=≤300 nM; B=>300-3000 nM; C=>3-30 μM; and D=>30 μM.

[3] = STAT3 (G127-I722) 25 nM, read-out: STAT3 (FP assay IC50 class)
[4] = STAT6 (W123-T658) 250 nM, probe 5-FAM-Ap[…]-NH2 2 nM, read-out: STAT6 (FP assay IC50 class)
[5] = STAT6 (W123-T658) 250 nM, probe 5-FAM-ApYKPFQDLI-NH2 2 nM, read-out: STAT6 (FP assay IC50 class)
[6] = STAT3 25 nM, read-out: STAT3 (FP assay IC50)
[7] = STAT6 250 nM, probe 5-FAM-Ap[…]-NH2 2 nM, read-out: STAT6 (FP assay IC50)

T1 sequence (P40763 127-722): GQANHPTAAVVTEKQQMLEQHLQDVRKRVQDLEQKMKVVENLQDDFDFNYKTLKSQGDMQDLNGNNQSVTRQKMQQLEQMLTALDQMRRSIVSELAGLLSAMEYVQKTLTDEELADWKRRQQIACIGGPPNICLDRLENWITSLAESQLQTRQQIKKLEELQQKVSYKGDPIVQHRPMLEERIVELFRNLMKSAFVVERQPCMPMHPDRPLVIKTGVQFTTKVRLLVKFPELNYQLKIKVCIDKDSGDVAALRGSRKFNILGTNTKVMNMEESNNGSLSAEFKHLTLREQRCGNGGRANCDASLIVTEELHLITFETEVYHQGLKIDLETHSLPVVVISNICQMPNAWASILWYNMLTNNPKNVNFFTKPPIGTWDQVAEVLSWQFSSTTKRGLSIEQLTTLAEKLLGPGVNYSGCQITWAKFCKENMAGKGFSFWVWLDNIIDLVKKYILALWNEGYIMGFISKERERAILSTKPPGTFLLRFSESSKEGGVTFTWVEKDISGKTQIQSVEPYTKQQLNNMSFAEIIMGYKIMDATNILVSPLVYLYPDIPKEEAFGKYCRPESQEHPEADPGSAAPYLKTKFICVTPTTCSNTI

Structure (SMILES)	IC50 [1, 3]	IC50 [2, 4]	IC50 [1, 6]	IC50 [2, 7]	further results
N#C[C@H]1CN(C(=O)[C@@H]2CCC[C@@H]3CCCC[C@H](NC(=O)c4cc5cc(C(F)P(=O)(O)O)ccc5s4)C(=O)N32)C[C@@H]1c1ccccc1 (relative stereo) [Compound 552, ((2-(((4S,7S,11aS)-4-((rel-trans)-3-cyano-4-phenylpyrrolidine-1-carbonyl)-6-oxodecahydro-2H-pyrido[1,2-a]azocin-7-yl)carbamoyl)benzo[b]thiophen-5-yl)fluoromethyl)phosphonic acid]	1 to 10 µM	≤ 0.3 µM			
N#C[C@@H]1CN(C(=O)[C@@H]2C[C@@H](O)[C@@H]3CCCCC[C@H](NC(=O)c4cc5cc(C(F)P(=O)(O)O)ccc5s4)C(=O)N23)C[C@H]1c1ccccc1 (relative stereo) [Compound 553, ((2-(((1R,3S,6S,11aS)-3-((rel-trans)-3-cyano-4-phenylpyrrolidine-1-carbonyl)-1-hydroxy-5-oxodecahydro-1H-pyrrolo[1,2-a]azonin-6-yl)carbamoyl)benzo[b]thiophen-5-yl)fluoromethyl)phosphonic acid]	1 to 10 µM	0.3 to 3 µM			
N#CC1CN(C(=O)[C@@H]2CC[C@@H]3CC[C@H](NC(=O)c4cc5cc(C(F)(F)P(=O)(O)O)ccc5s4)C(=O)N32)C[C@@H]1c1ccccc1 (relative stereo) [Compound 733, ((2-(((3S,6S,8aS)-3-((rel-trans)-3-cyano-4-phenylpyrrolidine-1-carbonyl)-5-oxooctahydro-indolizin-6-yl)carbamoyl)benzo [b]thiophen-5-yl)difluoromethyl) phosphonic acid]	1 to 10 µM	0.3 to 3 µM			
N#CC1CN(C(=O)[C@@H]2C[C@@H](O)[C@H]3C/C=C\C[C@H](NC(=O)c4cc5cc(C(F)(F)P(=O)(O)O)ccc5s4)C(=O)N32)CC1c1ccccc1 (relative stereo) [Compound 758, ((2-(((1R,3S,6S,10aR,Z)-3-((rel-trans)-3-cyano-4-phenylpyrrolidine-1-carbonyl)-1-hydroxy-5-oxo-1,2,3,5,6,7,10,10a-octahydropyrrolo[1,2-a]azocin-6-yl)carbamoyl)benzo [b]thiophen-5-yl)difluoromethyl) phosphonic acid]	1 to 10 µM				IC50 [2, 5]: 0.3 to 3 µM
N#C[C@@H]1CN(C(=O)[C@@H]2CC[C@@H]3CCCC[C@H](NC(=O)c4cc5cc(C(F)(F)P(=O)(O)O)ccc5s4)C(=O)N32)C[C@H]1c1cccc(=O)[nH]1 (relative stereo) [Compound 867, ((2-(((3S,6S,10aS)-3-((rel-trans)-3-cyano-4-(6-oxo-1,6-dihydropyridin-2-yl)pyrrolidine-1-carbonyl)-5-oxodecahydropyrrolo [1,2-a]azocin-6-yl)carbamoyl)benzo [b]thiophen-5-yl)difluoromethyl) phosphonic acid]	0.1 to 1 µM				IC50 [2, 5]: ≤ 0.3 µM
O=C(N[C@H]1CCCC[C@H]2CC[C@@H](C(=O)N[C@H]3COCC3F)N2C1=O)c1cc2cc(C(F)(F)P(=O)(O)O)ccc2s1 (relative stereo) [Compound 1109, (difluoro(2-(((3S,6S,10aS)-3-(((rel-trans)-4-fluorotetrahydrofuran-3-yl)carbamoyl)-5-oxodecahydropyrrolo[1,2-a]azocin-6-yl)carbamoyl)benzo[b]thiophen-5-yl)methyl)phosphonic acid]	0.1 to 1 µM	0.3 to 3 µM			
O=C(N[C@H]1CCCC[C@H]2CC[C@@H](C(=O)N[C@H]3COC[C@H]3F)N2C1=O)c1cc2cc(C(F)(F)P(=O)(O)O)ccc2s1 (relative stereo) [Compound 1111, (difluoro(2-(((3S,6S,10aS)-3-(((rel-trans)-4-fluorotetrahydrofuran-3-yl)carbamoyl)-5-oxodecahydropyrrolo[1,2-a]azocin-6-yl)carbamoyl)benzo[b]thiophen-5-yl)methyl)phosphonic acid]	1 to 10 µM	3 to 30 µM			
C[C@@]1(O)CC[C@H]2CC[C@@H](C(=O)N3C[C@H](c4ccccc4)[C@@H](C#N)C3)N2C(=O)[C@@H](NC(=O)c2cc3cc(C(F)(F)P(=O)(O)O)ccc3s2)C1 (single isomer, unassigned) [Compound 14, ((2-(((3S,6S,8R,10aR)-3-((3R,4S or 3S,4R)-3-cyano-4-phenylpyrrolidine-1-carbonyl)-8-hydroxy-8-methyl-5-oxodecahydropyrrolo [1,2-a]azocin-6-yl)carbamoyl)benzo[b]thiophen-5-yl)difluoromethyl) phosphonic acid]			0.1 to 1 µM	≤ 0.3 µM	
N#C[C@@H]1CN(C(=O)[C@@H]2CC[C@@H]3CCCC[C@H](NC(=O)c4cc5cc([C@H](F)P(=O)(O)O)ccc5s4)C(=O)N32)C[C@H]1c1ccccc1 (single isomer, unassigned) [Compound 18, ((2-(((3S,6S,10aS)-3-((3S,4R or 3R,4S)-3-cyano-4-phenylpyrrolidine-1-carbonyl)-5-oxodecahydropyrrolo [1,2-a]azocin-6-yl)carbamoyl)benzo[b]thiophen-5-yl)fluoromethyl) phosphonic acid]			1 to 10 µM	≤ 0.3 µM	
N#C[C@@H]1CN(C(=O)[C@@H]2CC[C@@H]3CCCC[C@H](NC(=O)c4cc5cc([C@@H](F)P(=O)(O)O)ccc5s4)C(=O)N32)C[C@H]1c1ccccc1 (single isomer, unassigned) [Compound 19, ((2-(((3S,6S,10aS)-3-((3S,4R or 3R,4S))-3-cyano-4-phenylpyrrolidine-1-carbonyl)-5-oxodecahydropyrrolo [1,2-a]azocin-6-yl)carbamoyl)benzo[b]thiophen-5-yl)fluoromethyl) phosphonic acid]			1 to 10 µM	≤ 0.3 µM	
N#C[C@@H]1CN(C(=O)[C@@H]2CC[C@@H]3CCCC[C@H](NC(=O)c4cc5cc(C(F)(F)P(=O)(O)O)ccc5s4)C(=O)N32)C[C@H]1c1ccccc1 (single isomer, unassigned) [Compound 22, ((2-(((3S,6S,10aS)-3-((3S,4R or 3R,4S))-3-cyano-4-phenylpyrrolidine-1-carbonyl)-5-oxodecahydropyrrolo [1,2-a]azocin-6-yl)carbamoyl)benzo[b]thiophen-5-yl) difluoromethyl) phosphonic acid]			1 to 10 µM	≤ 0.3 µM	
N#C[C@@H]1CN(C(=O)[C@@H]2CC[C@@H]3CCCC[C@H](NC(=O)c4ccc5ccc(C(F)(F)P(=O)(O)O)cc5c4)C(=O)N32)C[C@H]1c1cc[nH]c(=O)c1 (single isomer, unassigned) [Compound 79, ((7-(((3S,6S,10aS)-3-((3S,4R or 3R,4S)-3-cyano-4-(2-oxo-1,2-dihydropyridin-4-yl)pyrrolidine-1-carbonyl)-5-oxodecahydropyrrolo [1,2-a]azocin-6-yl)carbamoyl)naphthalen-2-yl)difluoromethyl) phosphonic acid]			0.1 to 1 µM		IC50 ([2]; STAT6 250 nM, probe 5-FAM-ApYKPFQDLI-NH2 2 nM, read-out: STAT6 (FP assay IC50)): ≤ 0.3 µM
